Laboratory results: patent publication US20250313862A1, “INHIBITION OF GENOTOXIC STRESS TO IMPROVE T CELL ENGINEERING” (GENENTECH, INC., priority 2022, published 2025)
Entries after “also recorded” stand apart in the source; their conditions may differ. Counter-ions that a name gives are not always drawn.

Key:
[1] = system: human primary CD8+ T cells; assay: T cell expansion fold of final cell product, 15-day T cell engineering process; type: cell-based; details: for cell expansion of final T cell product: day 15, average
Protocol: (§1) Peripheral blood mononuclear cells (PBMCs) were isolated from human cryopreserved leukopak using Ficoll gradient centrifugation ([…], 25 min). All samples were obtained from healthy donors genotyped with HLA A*02:01 MHC class I complex. Then CD8+ T cells were isolated using the Miltenyi AutoMACS cell separator according to the manufacturer's protocol. Isolated CD8+ T cells were then mixed with Miltenyi T cell TransACT reagent (1:100) (Catalog #130-111-160), 25 ng/mL IL-7 (Catalog #130-095-367), and 50 ng/mL IL-15 (Catalog #130-095-760) in Fuji Prime-XV medium (IrvineScientific Catalog #91154) for 48 h for activation.
(§2) Cells were electroporated with the 4D-Nucleofector System (Lonza) according to the manufacturer's protocol. After activation and inhibitor treatment, 10×10^6 (or 10 million) CD8+ T cells were washed and resuspended with Lonza P3 primary cell nucleofector solution (Catalog #V4XP-3024) and then mixed with pre-mixed RNP and DNA plasmid before transferring to Lonza 100-uL cuvette. After electroporation, 400 ul of FUJI Prime-XV medium was added to the cuvette and incubated for 15 min before seeding cells in culture flask. Pulse code used in this manuscript is EH115 for all circumstances.
(§3) All inhibitors were purchased from invivogen. Unless stated otherwise, cells were cultured with Fuji Prime-XV medium with 25 ng/ml IL-7 and 50 ng/ml IL-15 (Complete medium). After electroporation, T cells were carefully transferred to 24-well gREX (Wilsonwolf, Catalog: 80192M) at 1-2 million cells/cm^2 seeding density. 8 ml of complete medium were added per well and 50% of the medium was exchanged 6 days later. Cells were incubated at 37° C. and 5% CO2. The NucleoCounter NC-200 automated cell counter with the Via2-Casette were used in this study for cell counting and viability analysis.
(§4) Two days post activation, CD8+ T cells were washed and resuspended with FUJI Prime-XV complete medium containing inhibitors at the indicated concentrations for 6 h. After treatment, cells were washed and resuspended in Lonza P3 buffer prior to electroporation. Post transfection, T cells were cultured with FUJI Prime-XV complete medium without inhibitor.

[2] = system: human primary CD8+ T cells; assay: T cell viability 48 h post transfection (NucleoCounter NC-200); type: cell-based; details: for culture viability improvement compared to the untreated control group (CTR): 6 h pretreatment prior to transfection, 48 h-post transfection, on average (FIG. 6A)
Protocol: as §1, §2, §3, §4

[3] = system: human primary CD8+ T cells; assay: Total edited cell (TEC) number in final drug product; type: cell-based; details: for TEC number: seeding 2 million cells, day 15, on average (FIG. 6C)
From the text: The total edited cell number (TECs) in the final drug product is arguably the most important metric for the adoptive cell transfer (ACT) and this, among a few other conditions, is considered one of the most important criteria for cell therapy purpose since it is expected to translate to the therapeutic impact in the clinic. Using the total cell number of the final cell product on day 15 multiplied by the percentage of knock-in, we get the TECs that are representative of our T cell engineering and culture output. With a starting seeding density of 2 million cells and without inhibitor treatment, as shown for the control conditions (CTR), the TEC numbers were approximately 5.24 million on average (FIG. 6C). However, when T cells were pre-treated with the indicated inhibitors, a significant increase in the output of TECs in all donors were observed (FIGS. 4C, 4F, 4I, FIGS. 5C, 5F), which was consistent with the cell expansion data.
as §2, §3
(§5) Dextramer antibodies for knock-in analysis were purchased from Immudex (Catalog: WB3469-PE, WT1) and used following manufacturer's protocol. Surface staining, CFSE staining, 7-AAD/annexin V staining, and intracellular staining were performed as previously described. Samples were analyzed using the BD FACSLyric flow cytometer (BD Biosciences) and FlowJo v10 software. For proliferation and cell killing assay, data were corrected by a negative control or target cell-only control.
as §4

[4] = system: human primary CD8+ T cells; assay: T cell phenotype of final T cell product by flow cytometry (TSCM, TCM, TEM, TE); type: cell-based; details: pre-treatment prior to transfection; day 15; different donors; hydrochloride
Protocol: as §5, §4

[5] = system: type 1 interferons (IFNa, IFNB) and proinflammatory cytokine (IL-6); assay: Cytokine expression by qPCR 6 h post transfection; type: cell-based, human
Protocol: (§6) RNeasy Mini Kit (Cat. #74106) was purchased from Qiagen. TaqMan RNA-to-CT 1-Step Kit (Cat. #4392938) and Taqman primer-probe assays with reporter dye FAM and MGB quenchers were purchased from Thermo Fisher (assay information listed in Table 4). After RNA isolation, 2 ng RNA was mixed with Taqman primer-probe mix, TaqMan RNA-to-CT 1-Step master mix, and RT enzyme mix in a 10 uL qPCR system according to the manufacturer's protocol. Reaction readings were measured using QuantStudio 6 Flex machine and data was analyzed using QuantStudio Real-Time PCR software v1.2. PCR cycling conditions were 50° C. for 30 min, 95° C. for 10 min, 40× cycles of 95° C. for 15 s, 60° C. for 1 min. All data points were collected in triplicates, using RNA18S as internal control (sample ID: #Hs03928990_g1).
as §4

[6] = system: human primary CD8+ T cells; assay: T cell activation and cytokine expression after 24 h WT1 peptide pulse (flow cytometry); type: cell-based; details: day 15 cells pulsed 24 h with WT1 peptide
Protocol: The cGAS-STING pathway is crucial in detecting and neutralizing genotoxic stress. It is a main component of innate immune system that can trigger inflammation in response to cytosolic DNA detection. […] Harvested T cells from inhibitor treated and control groups were pulsed for 24 h with indicated concentrations of a specific peptide (WT1), which binds to the engineered TCR. […] Another major concern is the exhaustion of the engineered T cell cultures. To measure levels of T cell exhaustion, the expression of exhaustion markers, such as Tim3 and PD-1, was evaluated.
as §5

[7] = system: TBK1; assay: Western blot analysis of TBK1 phosphorylation post transfection; type: cell-based, human; details: post BX795 pre-treatment (FIG. 8A)
Protocol: (§7) T cell pellets were collected, washed and stored as frozen pellets in −80° C. until use. Cell pellet processing, western blot experiments and data analysis were performed as previously described (Tang, J B C, 2020).
as §4

[8] = system: TBK1; details: previous report [9]; cited from earlier work
[9] = system: cGAS-STING pathway; assay: cGAS-STING pathway activation in T cells (western blot and qPCR); type: cell-based, human; details: pretreatment prior to transfection (FIG. 8A); hydrochloride
Protocol: as §7, §6, §4

[10] = system: human primary CD8+ T cells; assay: Knock-in/knock-out efficiency by flow cytometry (MHC-peptide dextramer and TCR staining); type: cell-based
Protocol: as §2, §5, §4

[11] = system: human primary CD8+ T cells; assay: CFSE proliferation analysis, 72 h co-culture with WT1 peptide; type: cell-based; details: day 15 cells, WT1 peptide 72 h
Protocol: We next investigated proliferation of T cell after treatment with BX795. The final T cell product obtained from BX795 pre-treated or untreated groups were labeled with CFSE far-red, and co-cultured with WT1 peptide at the indicated concentrations for 72 h. […] T cells treated with higher concentration of WT1 peptide achieved high (˜60%) proliferation rates, implying the strong and antigen specific proliferation of the final T cell product. Finally, we compared T cells isolated from BX795 pre-treated as well as untreated control cultures in a target cell killing assay. Target cells T2 (T) were labeled with CFSE-far red, and then pulsed with 20 uM WT1 peptide before co-incubation with our final T cell product (E) at a ratio dependent manner. […] Of note, compared with the CTLs raised from conventional vaccine strategies, our T cells achieved high killing efficiency with much lower E:T ratio [19, 20], outlining the potential advantage of antigen-specific tumor cell killing of our TCR engineered T cells.
as §5, with “For proliferation and cell killing assay, data were corrected by a negative control or target cell-only control.” left out

[12] = system: IRF3; assay: Western blot analysis of IRF3 phosphorylation post transfection; type: cell-based, human; details: pre-treatment at both medium and high concentrations (FIG. 8A)
Protocol: as §7, §4

[13] = BX795-M (mid dosage 2.5 uM), day 15

Question: Which “cell expansion of final T cell product” value ([1]; 25 uM pre-treatment) does the source give for `CC(C)c1ccc2oc3nc(N)c(C(=O)O)cc3c(=O)c2c1` [Aml, 2-amino-5-oxo-7-propan-2-ylchromeno[2,3-b]pyridine-3-carboxylic acid] here?
Answer: Its value is 14.5 fold.

Question: What about the “culture viability improvement compared to the untreated control group (CTR)” value ([2]; 25 uM) of the same molecule?
Answer: Its value is “about 2 fold”.

Question: And the “average increase in TECs compared to the control group” value (“average increase in TECs” below) ([3]; 25 uM pre-treatment)?
Answer: The value was 267.0%.

Question: What about the TEC number ([3]; 25 uM pre-treatment) of the same molecule?
Answer: The TEC number was 14.7 million.

Question: Which “cell expansion of final T cell product” value ([1]; 5 uM pre-treatment) does the source give for `O=C(NCCCNc1nc(Nc2cccc(NC(=O)N3CCCC3)c2)ncc1I)c1cccs1` [BX795, N-[3-[[5-iodo-4-[[3-[(2-thienylcarbonyl)amino]propyl]amino]-2-pyrimidinyl]amino]phenyl]-1- Pyrrolidinecarboxamide hydrochloride] here?
Answer: The value was 20.3 fold.

Question: And the “T cell expansion rate” value ([1]; day 15, same donor as FIG. 8A (FIG. 8C))?
Answer: The value was “increased T cell expansion rate”.

Question: And the “inhibitor performance by electroporation pulse code” value ([1]; pulse code EH115 vs other pulse codes)?
Answer: The value was “performs better in EH115 groups”.

Question: And the “culture viability improvement compared to the untreated control group (CTR)” value ([2]; 5 uM)?
Answer: Its value is “about 2 fold”.

Question: And the “% viability” value ([2]; 48 h post transfection, same donor as FIG. 8A (FIG. 8B))?
Answer: Its value is “higher % viability”.

Question: And the “effectiveness in improving culture viability and growth among tested inhibitors” value ([2]; at 2.5 uM and 5 uM)?
Answer: Its value is “most effective”.

Question: And the “T cell phenotype of final T cell product vs untreated control” value [4]?
Answer: Its value is “no impact on the final T cell product phenotype”.

Question: What about the “levels of type 1 interferons (IFNa, IFNB)” value ([5]; BX795 removed prior to transfection) of the same molecule?
Answer: The value was “did not show a significant decrease”.

Question: What about the “downstream cytokine expression (IFNa, IFNB, IL-6)” value ([5]; pre-treatment, 6 h post transfection (FIG. 8F)) of the same molecule?
Answer: The value was “reduced”.

Question: And the “activation profile (CD137, IFNg, TNFa, Granzyme B expression) vs untreated control” value [6]?
Answer: Its value is “comparable activation profile”.

Question: And the TBK1 phosphorylation [7]?
Answer: The TBK1 phosphorylation was “not attenuated and was actually enhanced”.

Question: What about the “enhancement in TBK1 phosphorylation” value [8] of the same molecule?
Answer: Its value is 2 fold.

Question: What about the cGAS/STING pathway activation [9] of the same molecule?
Answer: The cGAS/STING pathway activation was “considerable reduction in cGAS/STING pathway activation; also recorded: attenuates T cell cGAS-STING pathway”.

Question: And the “exogenous TCR expression (knock-in) over the culture process vs control group” value ([10]; 2.5 uM pre-treated, day 4 to day 15 (FIG. 14B, 14C), hydrochloride)?
Answer: The value was “increases exogenous TCR expression; also recorded: enhances cell editing efficiency (knock-in)”.

Question: And the “knock-out efficiency in final cell product” value ([10]; BX795-H (high dosage 5 uM), day 15)?
Answer: The value was 83.5%.

Question: What about the “knock-in ratio in final cell product” value [10, 13] of the same molecule?
Answer: The value was 61%.

Question: What about the “knock-out efficiency in final cell product” value [10, 13] of the same molecule?
Answer: The value was 86.7%.

Question: What about the KI/KO ratio ([10]; day 15, same donor as FIG. 8A) of the same molecule?
Answer: Its KI/KO ratio is “equal or better KI/KO ratio”.

Question: What about the “T cell proliferation in response to antigen specific stimulation vs untreated” value [11] of the same molecule?
Answer: Its value is “comparable”.

Question: What about the “phosphorylation of IRF3 post transfection” value [12] of the same molecule?
Answer: The value was “attenuated phosphorylation of IRF3”.

Question: And the “average increase in TECs” value ([3]; 2.5 uM pre-treatment)?
Answer: The value was 303.4%.

Question: And the TEC number ([3]; 2.5 uM pre-treatment)?
Answer: The TEC number was 21.1 million.

Question: And the TEC numbers ([3]; day 15, same donor as FIG. 8A)?
Answer: Its TEC numbers is “improved TEC numbers”.

Question: And the “improvement in TEC compared to the control group” value ([3]; mid or high concentrations (2.5 uM and 5 um), statistically significant)?
Answer: The value was “more than 3 fold”.

Question: With `O=C(NCCCNc1nc(Nc2cccc(CN3CCOCC3)c2)ncc1C1CC1)C1CCC1` [MRT, N-[3-[[5-cyclopropyl-2-[3-(morpholin-4-ylmethyl)anilino]pyrimidin-4-yl]amino]propyl] cyclobutanecarboxamide] as the molecule, how does the “cell expansion of final T cell product” value ([1]; 5 uM pre-treatment) read?
Answer: The value was 17.2 fold.

Question: What about the “culture viability improvement compared to the untreated control group (CTR)” value ([2]; 2.5 uM) of the same molecule?
Answer: The value was “about 2 fold”.

Question: What about the “average increase in TECs” value ([3]; 5 uM pre-treatment) of the same molecule?
Answer: The value was 180%.

Question: And the TEC number ([3]; 5 uM pre-treatment)?
Answer: Its TEC number is 17.4 million.
